The numbers were not newly measured in patent US7928112B2, “Substituted 5,6,7,8-tetrahydropyrido[4,3-D]pyrimidines as dipeptidyl peptidase-IV inhibitors for the treatment or prevention of diabetes” (Merck Sharp & Dohme Corp., priority 2006, dated 2011), which cites them from elsewhere.

For data set [1], the target named is T1, DPP-4 (Rattus norvegicus, UniProt P14740).
T1 construct: host or cells: rats (in vivo)
The following applies: rats; survival doubled from day 7 to day 14.

Data set [2] addresses T2, DPP-4 (Mus musculus, UniProt P28843).
T2 construct: host or cells: mouse (in vivo)
The following applies: cyclophosphamide-induced neutropenia.

Data set [3] concerns the target T3, DPP-4 (Homo sapiens, UniProt P27487).
T3 construct: GRF is rapidly degraded in plasma to GRF[3-44]; from tissue; host or cells: plasma

T1 sequence (P14740 whole entry): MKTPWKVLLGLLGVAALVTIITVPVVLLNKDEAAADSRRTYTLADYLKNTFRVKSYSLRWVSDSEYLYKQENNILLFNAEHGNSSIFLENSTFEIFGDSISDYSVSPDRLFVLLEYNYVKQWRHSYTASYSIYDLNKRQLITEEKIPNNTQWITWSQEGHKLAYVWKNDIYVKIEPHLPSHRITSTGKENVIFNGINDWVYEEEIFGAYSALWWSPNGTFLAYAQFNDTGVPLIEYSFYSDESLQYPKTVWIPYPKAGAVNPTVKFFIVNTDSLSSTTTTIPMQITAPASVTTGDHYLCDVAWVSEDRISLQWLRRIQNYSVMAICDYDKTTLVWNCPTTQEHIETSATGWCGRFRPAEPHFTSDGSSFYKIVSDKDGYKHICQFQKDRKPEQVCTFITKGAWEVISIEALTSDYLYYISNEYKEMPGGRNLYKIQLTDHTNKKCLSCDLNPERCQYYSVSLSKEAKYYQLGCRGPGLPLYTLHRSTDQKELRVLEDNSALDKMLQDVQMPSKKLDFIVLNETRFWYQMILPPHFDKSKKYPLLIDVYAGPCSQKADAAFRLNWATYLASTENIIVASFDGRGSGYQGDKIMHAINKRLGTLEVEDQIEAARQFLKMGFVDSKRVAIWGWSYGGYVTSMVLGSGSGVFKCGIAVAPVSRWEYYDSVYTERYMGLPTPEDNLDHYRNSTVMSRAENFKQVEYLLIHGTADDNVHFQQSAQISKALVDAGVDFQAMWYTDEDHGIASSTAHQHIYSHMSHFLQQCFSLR
T3 sequence (P27487 39-766 limits assumed, species assumed): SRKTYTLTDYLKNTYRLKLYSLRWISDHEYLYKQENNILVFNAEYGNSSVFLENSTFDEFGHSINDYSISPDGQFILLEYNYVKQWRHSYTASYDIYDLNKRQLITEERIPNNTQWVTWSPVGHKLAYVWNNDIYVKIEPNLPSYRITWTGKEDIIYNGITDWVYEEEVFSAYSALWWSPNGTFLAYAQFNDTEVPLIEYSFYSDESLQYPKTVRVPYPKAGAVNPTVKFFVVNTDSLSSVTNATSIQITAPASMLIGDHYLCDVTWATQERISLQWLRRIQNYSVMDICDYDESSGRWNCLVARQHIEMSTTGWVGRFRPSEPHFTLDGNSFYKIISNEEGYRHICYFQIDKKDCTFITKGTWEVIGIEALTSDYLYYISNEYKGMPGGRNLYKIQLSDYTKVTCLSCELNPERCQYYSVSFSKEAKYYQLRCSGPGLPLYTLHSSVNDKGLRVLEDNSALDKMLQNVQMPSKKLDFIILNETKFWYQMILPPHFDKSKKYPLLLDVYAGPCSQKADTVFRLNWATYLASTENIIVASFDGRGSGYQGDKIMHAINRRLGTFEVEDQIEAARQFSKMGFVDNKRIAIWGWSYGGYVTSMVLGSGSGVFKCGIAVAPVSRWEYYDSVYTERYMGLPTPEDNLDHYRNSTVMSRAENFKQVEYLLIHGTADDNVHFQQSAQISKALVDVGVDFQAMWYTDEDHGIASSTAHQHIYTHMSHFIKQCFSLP
T2 sequence (P28843 whole entry): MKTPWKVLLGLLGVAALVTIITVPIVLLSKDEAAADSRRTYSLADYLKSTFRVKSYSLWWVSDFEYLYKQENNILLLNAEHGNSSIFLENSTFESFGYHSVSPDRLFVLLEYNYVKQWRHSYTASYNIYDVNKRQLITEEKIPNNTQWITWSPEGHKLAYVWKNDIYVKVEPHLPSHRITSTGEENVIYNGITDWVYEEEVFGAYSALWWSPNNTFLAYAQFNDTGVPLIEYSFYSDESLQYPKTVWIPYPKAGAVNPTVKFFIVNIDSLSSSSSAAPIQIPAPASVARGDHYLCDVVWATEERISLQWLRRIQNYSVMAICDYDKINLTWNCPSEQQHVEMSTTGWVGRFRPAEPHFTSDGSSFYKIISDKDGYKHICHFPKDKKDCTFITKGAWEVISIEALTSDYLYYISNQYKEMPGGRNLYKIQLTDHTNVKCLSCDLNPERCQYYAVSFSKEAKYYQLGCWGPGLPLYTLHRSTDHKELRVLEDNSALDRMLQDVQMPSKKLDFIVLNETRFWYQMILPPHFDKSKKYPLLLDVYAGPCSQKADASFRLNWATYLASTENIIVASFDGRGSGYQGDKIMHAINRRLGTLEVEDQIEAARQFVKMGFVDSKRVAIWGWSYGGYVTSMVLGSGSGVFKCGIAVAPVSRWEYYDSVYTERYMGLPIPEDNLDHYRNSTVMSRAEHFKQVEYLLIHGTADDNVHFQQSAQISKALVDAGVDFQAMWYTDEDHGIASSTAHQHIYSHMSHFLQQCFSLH

For `CC(C)N1CCC(c2ccccc2)(c2ccccc2)CC1` [Prodipine, Pro-Pro-diphenyl-phosphonate], at DPP-4 [1], the cardiac allograft survival is listed as 14 day.

Regarding `CC(C)[C@H](N)C(=O)N1CCC[C@H]1B(O)O` [Val-Boro-Pro], the hematopoiesis result at DPP-4 [2] is “stimulated hematopoiesis”.

Take `CC[C@H](C)[C@H](N)C(=O)N1CCC[C@H]1C(=O)N[C@H](C(=O)O)[C@@H](C)CC` [diprotin A]: the “degradation of GRF to GRF[3-44] in plasma” value on DPP-4 [3] is listed as “prevented”.
